Reference: patent publication US20210188813A1, “EZH2 INHIBITOR AND PHARMACEUTICALLY ACCEPTABLE SALTS AND POLYMORPHIC SUBSTANCES THEREOF, AND APPLICATION OF EZH2 INHIBITOR” (SHANGHAI HAIYAN PHARMACEUTICAL TECHNOLOGY CO., LTD., priority 2018, published 2021)

What was measured:
Pfeiffer cells = experiment: Cell proliferation assay, Pfeiffer; assay type: cell-based; details: Homo sapiens, Pfeiffer, 144 h; 6 days' growth, cell counting kit-8
Method: Cell lines Pfeiffer (CRL-2632), suDHL-6 (CRL-2959) and suDHL-10 (CRL-2963) were obtained from ATCC. All cell lines were cultured in RPMI-1640 medium (Gibco) plus 10% FBS (Gibco). Cells are harvested by centrifuge and densities are determined using a CounterStar cell counter. Appropriate number of cells are plated in a96-well culture plate and pre-incubate overnight. Tested compounds are 1:3 diluted for 8-points and added into each well. After 6 days' growth, cell counting kit-8 (Dojindo) is used to detect cell viability and read on Tecan infinite pro. IC50s are counted by XLfit using a four-parameter model.

PRC2 (EZH2-Y641F) = target: T1, PRC2 (EZH2-Y641F) (Homo sapiens, UniProt Q15910, Y641F); experiment: In vitro methyltransferase assay; assay type: biochemical
T1 construct: purchased Active motif
Method: Recombinant PRC2 (EZH2-Y641F) was purchased from Active motif, S-adenosyl-methionin chloride (SAM) and Poly-L-lysine (PLL) were purchased from Sigma-Aldrich, H3(1-50)K27me1 peptide was purchased from Cisbio. LANCEUltra (Perkinelmer) system was used for detection. For the enzyme activity test, tested compounds are 1:3 diluted for 8-points, and added into each well, then 100 ng enzyme is added. And then the buffer [20 mM Tris pH8.5, 2 mM MgCl2, 0.01% Tween-20, 1 mM TCEP] containing […]/250 nM H3 (1-50)K27me1 premixtures are added. After 3 hours enzyme reaction at RT, the premixed detection buffer (PLL, Europium antibody and Ulight) is added, and react for 1 h at RT, then read fluorescence on Tecan infinite pro. IC50s are counted by XLfit using a four-parameter model.

[1] = Polymorph screening by mixing shaking; assay type: physicochemical; details: mixed crystal forms I to III shaken 1 day at room temperature in different solvents
Method: Mixing shaking test was conducted using different solvent systems. 2 mg of each crystal form of crystal form I to crystal form III was weighed into a glass vial to obtain the mixed crystals, the appropriate amount of organic reagents in Table 6 were added, screwed the cap, and a sealing film was used to prevent the solvent from volatilizing, shaken for 1 days at room temperature and 25 r/min, taken out and centrifuged at 10000 r/min for 10 min at 4° C., the supernatant was poured, and the solid was placed in a oven at 50° C. for drying, the resulting solid was collected and sent for XRPD test.

T1 sequence (Q15910 whole entry Y641F): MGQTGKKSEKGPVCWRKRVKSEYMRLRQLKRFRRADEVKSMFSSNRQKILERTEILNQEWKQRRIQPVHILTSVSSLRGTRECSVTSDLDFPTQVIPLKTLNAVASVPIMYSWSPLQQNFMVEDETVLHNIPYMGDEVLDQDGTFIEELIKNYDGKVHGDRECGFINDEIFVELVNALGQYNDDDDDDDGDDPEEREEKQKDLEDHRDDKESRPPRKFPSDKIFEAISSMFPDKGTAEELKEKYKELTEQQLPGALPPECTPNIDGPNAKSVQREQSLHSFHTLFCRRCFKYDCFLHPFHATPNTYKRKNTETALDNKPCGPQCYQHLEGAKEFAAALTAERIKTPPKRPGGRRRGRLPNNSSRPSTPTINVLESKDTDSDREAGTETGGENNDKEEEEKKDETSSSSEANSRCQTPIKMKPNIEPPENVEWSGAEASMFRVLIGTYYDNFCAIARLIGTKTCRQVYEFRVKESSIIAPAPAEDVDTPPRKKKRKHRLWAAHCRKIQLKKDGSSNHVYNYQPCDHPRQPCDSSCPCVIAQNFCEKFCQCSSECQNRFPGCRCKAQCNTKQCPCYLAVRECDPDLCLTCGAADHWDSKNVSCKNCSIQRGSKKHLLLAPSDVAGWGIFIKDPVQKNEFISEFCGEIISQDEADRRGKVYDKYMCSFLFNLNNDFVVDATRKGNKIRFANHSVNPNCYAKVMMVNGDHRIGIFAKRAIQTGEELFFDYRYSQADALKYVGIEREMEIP
T1 sequence (O75530 whole entry partner): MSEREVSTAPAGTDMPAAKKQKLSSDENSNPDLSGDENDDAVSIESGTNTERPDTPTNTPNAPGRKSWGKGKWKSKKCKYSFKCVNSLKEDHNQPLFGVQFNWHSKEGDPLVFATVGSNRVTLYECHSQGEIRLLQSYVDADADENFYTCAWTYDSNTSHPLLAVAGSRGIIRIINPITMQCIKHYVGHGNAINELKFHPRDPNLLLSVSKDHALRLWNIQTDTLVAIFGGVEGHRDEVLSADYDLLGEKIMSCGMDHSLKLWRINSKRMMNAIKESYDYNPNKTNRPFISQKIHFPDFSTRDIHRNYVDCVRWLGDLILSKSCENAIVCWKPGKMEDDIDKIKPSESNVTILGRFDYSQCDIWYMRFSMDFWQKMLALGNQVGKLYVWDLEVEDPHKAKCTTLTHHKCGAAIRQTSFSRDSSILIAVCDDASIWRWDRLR
T1 sequence (Q15022 whole entry partner): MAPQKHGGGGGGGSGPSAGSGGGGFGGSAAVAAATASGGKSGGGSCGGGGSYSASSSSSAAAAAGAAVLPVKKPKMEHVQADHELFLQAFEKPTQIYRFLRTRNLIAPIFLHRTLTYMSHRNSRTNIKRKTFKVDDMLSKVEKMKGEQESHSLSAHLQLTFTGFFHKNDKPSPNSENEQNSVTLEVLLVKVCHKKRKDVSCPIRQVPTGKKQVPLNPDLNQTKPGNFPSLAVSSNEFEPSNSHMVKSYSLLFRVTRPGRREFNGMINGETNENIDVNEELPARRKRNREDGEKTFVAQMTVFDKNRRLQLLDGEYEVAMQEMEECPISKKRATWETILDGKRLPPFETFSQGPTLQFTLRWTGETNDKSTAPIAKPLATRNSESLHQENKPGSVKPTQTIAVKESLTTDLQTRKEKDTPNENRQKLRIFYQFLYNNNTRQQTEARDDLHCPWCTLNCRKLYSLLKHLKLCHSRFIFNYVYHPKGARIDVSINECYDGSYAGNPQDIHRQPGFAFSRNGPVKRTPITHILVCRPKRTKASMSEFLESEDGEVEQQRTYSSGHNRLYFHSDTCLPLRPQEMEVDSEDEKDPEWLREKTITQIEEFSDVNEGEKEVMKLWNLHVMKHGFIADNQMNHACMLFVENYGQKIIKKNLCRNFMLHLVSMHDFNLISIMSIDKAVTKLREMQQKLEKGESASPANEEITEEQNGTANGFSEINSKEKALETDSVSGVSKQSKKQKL
T1 sequence (Q09028 whole entry partner): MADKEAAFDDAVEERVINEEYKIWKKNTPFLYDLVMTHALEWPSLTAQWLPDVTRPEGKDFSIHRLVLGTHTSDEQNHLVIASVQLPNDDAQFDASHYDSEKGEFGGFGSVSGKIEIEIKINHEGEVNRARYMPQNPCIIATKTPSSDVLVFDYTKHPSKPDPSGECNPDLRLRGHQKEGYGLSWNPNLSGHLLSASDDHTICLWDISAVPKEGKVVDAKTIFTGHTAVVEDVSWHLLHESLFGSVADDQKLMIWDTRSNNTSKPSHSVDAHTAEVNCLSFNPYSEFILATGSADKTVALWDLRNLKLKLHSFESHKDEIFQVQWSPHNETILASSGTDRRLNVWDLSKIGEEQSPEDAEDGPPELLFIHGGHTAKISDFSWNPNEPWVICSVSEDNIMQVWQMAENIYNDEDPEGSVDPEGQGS
T1 sequence (Q6ZN18 whole entry partner): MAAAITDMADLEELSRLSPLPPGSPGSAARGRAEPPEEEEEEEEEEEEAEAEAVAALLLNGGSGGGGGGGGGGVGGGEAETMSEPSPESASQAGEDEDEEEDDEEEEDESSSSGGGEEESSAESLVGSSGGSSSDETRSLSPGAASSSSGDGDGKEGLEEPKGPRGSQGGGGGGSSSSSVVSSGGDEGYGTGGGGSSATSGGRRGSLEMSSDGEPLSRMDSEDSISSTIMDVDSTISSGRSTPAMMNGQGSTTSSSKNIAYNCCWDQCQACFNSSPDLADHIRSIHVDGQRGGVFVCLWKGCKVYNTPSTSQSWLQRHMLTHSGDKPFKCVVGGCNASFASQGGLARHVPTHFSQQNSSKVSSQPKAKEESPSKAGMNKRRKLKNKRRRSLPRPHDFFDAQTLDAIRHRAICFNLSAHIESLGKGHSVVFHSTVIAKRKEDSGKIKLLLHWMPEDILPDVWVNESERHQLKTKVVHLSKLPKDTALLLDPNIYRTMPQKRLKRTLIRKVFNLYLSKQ

With CCN(c1cc(C(=O)NCc2c(C)cc(C)[nH]c2=O)c(C)c2c1cnn2C)C1CCC(N(C)C)CC1 (stereo not shown) [D2] as the molecule, how does the IC50 (Pfeiffer cells) read?
The IC50 was greater than 3 µM.

What about the IC50 (PRC2 (EZH2-Y641F)) of the same molecule?
The IC50 was 4.82 µM.

What does the source list for CCN(c1cc(C(=O)NCc2c(C)cc(C)[nH]c2=O)c(C)c2c1cnn2C)C1CCOCC1 [D1, N-((4,6-dimethyl-2-oxo-1,2-dihydropyridin-3-yl)methyl)-4-(ethyl (tetrahydro-2H-pyran-4-yl)amino)-1,7-dimethyl-1H-indazole-6-carboxamide]?
IC50 (Pfeiffer cells): > 10 µM; IC50 (PRC2 (EZH2-Y641F)): > 10 µM

Which “stability of crystal form” value [1] does the source give for CCc1c(C(=O)NCc2c(C)cc(C)[nH]c2=O)cc2c(cnn2C)c1N(CC)[C@H]1CC[C@H](N2CC(OC)C2)CC1 [Crystal form V] here?
The value was “stable crystal form”.

With CCN(c1cc(C(=O)NCc2c(C)cc(C)[nH]c2=O)c(C)c2c1cnn2C)C1CCC(N2CC(OC)C2)CC1 (stereo not shown) [D3] as the molecule, how does the IC50 (Pfeiffer cells) read?
Its IC50 is greater than 3 µM.

And the IC50 (PRC2 (EZH2-Y641F))?
Its IC50 is greater than 10 µM.
